Patent USRE49022E1, “Insecticidal compounds” (SYNGENTA PARTICIPATIONS AG, priority 2013, dated 2022)

What was measured:
Format in all cases: in vivo
[1] = test system: Diabrotica balteata (Corn Root Worm); experiment: Diabrotica balteata, artificial diet MTP test; conditions: 120 h, 200 ppm (concentration in well 18 ppm), L2 larvae, larval mortality after 5 days
Procedure, shortened: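 Artificial diet treated with test solution at 200 ppm application rate (18 ppm in well), dried, then infested with L2 larvae (6-10 per well). Larval mortality checked after 5 days of incubation.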

[2] = test system: Myzus persicae (Green Peach Aphid); experiment: Myzus persicae, sunflower leaf disc spray test; conditions: foliar, 144 h, sprayed sunflower leaf discs, aphid population of mixed ages, mortality after 6 DAT
Procedure: Sunflower leaf discs were placed on agar in a 24-well microtiter plate and sprayed with test solutions at an application rate of 200 ppm. After drying, the leaf discs were infested with an aphid population of mixed ages. After an incubation period of 6 DAT, samples were checked for mortality.

[3] = test system: Myzus persicae (Green Peach Aphid); experiment: Myzus persicae, sucrose solution / Parafilm test; conditions: 120 h, mixed with sucrose solution under Parafilm, mortality 5 days after infestation
Procedure, shortened: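 Compounds mixed into sucrose solution at 12.5 ppm, sealed under stretched Parafilm, with aphid-infested pea seedlings placed on the Parafilm and the plate inverted so aphids feed through the membrane. Mortality assessed 5 days after infestation.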

[4] = test system: Plutella xylostella (Diamond Back Moth); experiment: Plutella xylostella, artificial diet MTP test; conditions: 144 h, 200 ppm (concentration in well 18 ppm), L2 larvae, 6 days
Procedure, shortened: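 Artificial diet treated at 200 ppm application rate (18 ppm in well), dried, then infested with 7–12 L2 larvae per well. Larval mortality and growth regulation assessed after 6 days.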

[5] = test system: Spodoptera littoralis (Egyptian Cotton Leafworm); experiment: Spodoptera littoralis, cotton leaf disc spray test; conditions: foliar, 72 h, sprayed cotton leaf discs, L1 larvae, 3 days after treatment
From the text: Cotton leaf discs were placed on agar in a 24-well microtiter plate and sprayed with test solutions at an application rate of 200 ppm. After drying, the leaf discs were infested with 5 L1 larvae. The samples were checked for mortality 3 days after treatment (DAT).

[6] = test system: Spodoptera littoralis (Egyptian Cotton Leaf Worm); experiment: Spodoptera littoralis, agar / lettuce root uptake test; conditions: 144 h, mixed with agar, uptake by lettuce roots, mortality 6 days after infestation
From the text: Test compounds were applied by pipette into 24 well plates and mixed with agar. Application rate: 12.5 ppm. Lettuce seeds were placed on the agar and the multi well plate is closed by another plate which contains also agar. After 7 days the roots have absorbed the compound and the lettuce has grown into the lid plate. The lettuce leafs were now cut off into the lid plate. Spodoptera eggs were pipetted through a plastic stencil on a humid gel blotting paper and the plate closed with it. The samples are checked for mortality 6 days after infestation.

[7] = test system: Tetranychus urticae (Two-Spotted Spider Mite); experiment: Tetranychus urticae, bean leaf disc spray test; conditions: foliar, 192 h, sprayed bean leaf discs, mite populations of mixed ages, 8 days
From the text: Bean leaf discs on agar in 24-well microtiter plates were sprayed with test solutions at an application rate of 200 ppm. After drying, the leaf discs are infested with mite populations of mixed ages. 8 days later, discs were checked for mortality.

[8] = test system: Thrips tabaci (Onion Thrips); experiment: Thrips tabaci, sunflower leaf disc spray test; conditions: foliar, 168 h, sprayed sunflower leaf discs, mortality after 7 days

O=C(Nc1cccc(C(=O)Nc2c(Br)cc(C(F)(C(F)(F)F)C(F)(F)Cl)cc2OC(F)F)c1F)c1cc[n+]([O-])cc1 (stereo not shown) [Compound 23]
≥ 80%: pest or weed control at 200 ppm [1] | pest or weed control at 200 ppm [2] | pest or weed control at 12.5 ppm [3] | mortality at 200 ppm [4] | mortality at 200 ppm [5] | pest or weed control at 12.5 ppm [6] | mortality at 200 ppm [7] | pest or weed control at 200 ppm [8]

O=C(Nc1cccc(C(=O)Nc2c(Br)cc(C(F)(C(F)(F)F)C(F)(F)Cl)cc2OC(F)F)c1F)c1ccc[n+]([O-])c1 (stereo not shown) [Compound 24]
≥ 80%: pest or weed control at 200 ppm [1] | pest or weed control at 200 ppm [2] | pest or weed control at 12.5 ppm [3] | mortality at 200 ppm [4] | mortality at 200 ppm [5] | pest or weed control at 12.5 ppm [6] | mortality at 200 ppm [7] | pest or weed control at 200 ppm [8]

COc1c(NC(=O)c2cc[n+]([O-])cc2)cccc1C(=O)Nc1c(Br)cc(C(F)(C(F)(F)F)C(F)(F)Cl)cc1OC(F)F (stereo not shown) [Compound 25]
≥ 80%: pest or weed control at 200 ppm [1] | pest or weed control at 200 ppm [2] | pest or weed control at 12.5 ppm [3] | mortality at 200 ppm [4] | mortality at 200 ppm [5] | pest or weed control at 12.5 ppm [6] | mortality at 200 ppm [7] | pest or weed control at 200 ppm [8]

COc1c(NC(=O)c2ccc[n+]([O-])c2)cccc1C(=O)Nc1c(Br)cc(C(F)(C(F)(F)F)C(F)(F)Cl)cc1OC(F)F (stereo not shown) [Compound 26]
≥ 80%: pest or weed control at 200 ppm [1] | pest or weed control at 200 ppm [2] | pest or weed control at 12.5 ppm [3] | mortality at 200 ppm [4] | mortality at 200 ppm [5] | pest or weed control at 12.5 ppm [6] | mortality at 200 ppm [7] | pest or weed control at 200 ppm [8]

CCN(C(=O)c1ccc(C#N)cc1)c1cccc(C(=O)Nc2c(Br)cc(C(F)(C(F)(F)F)C(F)(F)Cl)cc2OC(F)F)c1F (stereo not shown) [Compound 31]
≥ 80%: pest or weed control at 200 ppm [1] | pest or weed control at 200 ppm [2] | pest or weed control at 12.5 ppm [3] | mortality at 200 ppm [4] | mortality at 200 ppm [5] | pest or weed control at 12.5 ppm [6] | mortality at 200 ppm [7] | pest or weed control at 200 ppm [8]

CCN(C(=O)c1ccc(C#N)cc1)c1cccc(C(=O)Nc2c(Br)cc(C(F)(C(F)(F)F)C(F)(F)Cl)cc2OC(F)F)c1OC (stereo not shown) [Compound 32]
≥ 80%: pest or weed control at 200 ppm [1] | pest or weed control at 200 ppm [2] | pest or weed control at 12.5 ppm [3] | mortality at 200 ppm [4] | mortality at 200 ppm [5] | pest or weed control at 12.5 ppm [6] | mortality at 200 ppm [7] | pest or weed control at 200 ppm [8]

CCN(C(=O)c1ccncc1)c1cccc(C(=O)Nc2c(Br)cc(C(F)(C(F)(F)F)C(F)(F)Cl)cc2OC(F)F)c1F (stereo not shown) [Compound 35]
≥ 80%: pest or weed control at 200 ppm [1] | pest or weed control at 200 ppm [2] | pest or weed control at 12.5 ppm [3] | mortality at 200 ppm [4] | mortality at 200 ppm [5] | pest or weed control at 12.5 ppm [6] | mortality at 200 ppm [7] | pest or weed control at 200 ppm [8]

CCN(C(=O)c1ccncc1)c1cccc(C(=O)Nc2c(Br)cc(C(F)(C(F)(F)F)C(F)(F)Cl)cc2OC(F)F)c1OC (stereo not shown) [Compound 36, N-[3-[[2-bromo-4-[1-[chloro(difluoro)methyl]-1,2,2,2-tetrafluoro-ethyl]-6-(difluoromethoxy)phenyl]carbamoyl]-2-methoxy-phenyl]-N-ethyl-pyridine-4-carboxamide]
≥ 80%: pest or weed control at 200 ppm [1] | pest or weed control at 200 ppm [2] | pest or weed control at 12.5 ppm [3] | mortality at 200 ppm [4] | mortality at 200 ppm [5] | pest or weed control at 12.5 ppm [6] | mortality at 200 ppm [7] | pest or weed control at 200 ppm [8]

CCN(C(=O)c1cccnc1)c1cccc(C(=O)Nc2c(Br)cc(C(F)(C(F)(F)F)C(F)(F)Cl)cc2OC(F)F)c1F (stereo not shown) [Compound 39]
≥ 80%: pest or weed control at 200 ppm [1] | pest or weed control at 200 ppm [2] | pest or weed control at 12.5 ppm [3] | mortality at 200 ppm [4] | mortality at 200 ppm [5] | pest or weed control at 12.5 ppm [6] | mortality at 200 ppm [7] | pest or weed control at 200 ppm [8]

CCN(C(=O)c1cccnc1)c1cccc(C(=O)Nc2c(Br)cc(C(F)(C(F)(F)F)C(F)(F)Cl)cc2OC(F)F)c1OC (stereo not shown) [Compound 40]
≥ 80%: pest or weed control at 200 ppm [1] | pest or weed control at 200 ppm [2] | pest or weed control at 12.5 ppm [3] | mortality at 200 ppm [4] | mortality at 200 ppm [5] | pest or weed control at 12.5 ppm [6] | mortality at 200 ppm [7] | pest or weed control at 200 ppm [8]

CCc1cc(C(F)(C(F)(F)F)C(F)(F)Cl)cc(Br)c1NC(=O)c1cccc(N(CC)C(=O)c2cccnc2)c1F (stereo not shown) [Compound 41]
≥ 80%: pest or weed control at 200 ppm [1] | pest or weed control at 200 ppm [2] | pest or weed control at 12.5 ppm [3] | mortality at 200 ppm [4] | mortality at 200 ppm [5] | pest or weed control at 12.5 ppm [6] | mortality at 200 ppm [7] | pest or weed control at 200 ppm [8]

CCN(C(=O)c1cc[n+]([O-])cc1)c1cccc(C(=O)Nc2c(Br)cc(C(F)(C(F)(F)F)C(F)(F)Cl)cc2OC(F)F)c1F (stereo not shown) [Compound 43]
≥ 80%: pest or weed control at 200 ppm [1] | pest or weed control at 200 ppm [2] | pest or weed control at 12.5 ppm [3] | mortality at 200 ppm [4] | mortality at 200 ppm [5] | pest or weed control at 12.5 ppm [6] | mortality at 200 ppm [7] | pest or weed control at 200 ppm [8]

CCN(C(=O)c1cc[n+]([O-])cc1)c1cccc(C(=O)Nc2c(Br)cc(C(F)(C(F)(F)F)C(F)(F)Cl)cc2OC(F)F)c1OC (stereo not shown) [Compound 44, N-[3-[[2-bromo-4-[1-[chloro(difluoro)methyl]-1,2,2,2-tetrafluoro-ethyl]-6-(difluoromethoxy)phenyl]carbamoyl]-2-methoxy-phenyl]-N-ethyl-1-oxido-pyridin-1-ium-4-carboxamide]
≥ 80%: pest or weed control at 200 ppm [1] | pest or weed control at 200 ppm [2] | pest or weed control at 12.5 ppm [3] | mortality at 200 ppm [4] | mortality at 200 ppm [5] | pest or weed control at 12.5 ppm [6] | mortality at 200 ppm [7] | pest or weed control at 200 ppm [8]

CCN(C(=O)c1ccc[n+]([O-])c1)c1cccc(C(=O)Nc2c(Br)cc(C(F)(C(F)(F)F)C(F)(F)Cl)cc2OC(F)F)c1F (stereo not shown) [Compound 47]
≥ 80%: pest or weed control at 200 ppm [1] | pest or weed control at 200 ppm [2] | pest or weed control at 12.5 ppm [3] | mortality at 200 ppm [4] | mortality at 200 ppm [5] | pest or weed control at 12.5 ppm [6] | mortality at 200 ppm [7] | pest or weed control at 200 ppm [8]
